From patent publication US8981112B2, “Inhibitors of β-secretase” (Boehringer Ingelheim International GmbH, priority 2012, dated 2015) come the findings set out here.

Series [1] addresses truncated human beta-secretase, BACE1 (amino acids 1-454) (Homo sapiens (Human), UniProt P56817). Put plainly: BACE1 Assay (Assay 1), fluorescence quench assay. In kind it is biochemical. Conditions: read-out: BACE1 IC50 nM (assay 1). The procedure:
The substrate was dissolved at 1 mg/ml in DMSO.
The assay was performed in the presence of OptiMEM (supernatant collected over 24 h and cleared from cellular debris by centrifugation) containing the ectodomain of BACE1, 25 μl water containing the desired 2-fold concentration of test compound and 2% DMSO, 1 μM substrate peptide, 20 mM NaOAc, pH 4.4, and 0.04% Triton-X100 in a total assay volume of 50 μl in a 384 well plate. In general, 25 μl of compound dilution were given to the plate followed by the addition of 10 μl of BACE1 containing OptiMEM™ diluted 1:10 in water with 0.2% Triton X-100. The reaction was started with the addition of 15 μl substrate in NaOAc buffer. The reaction was incubated at rt (dark) in an Envision® multilabel reader (Perkin Elmer) and the cleavage of the substrate was recorded as kinetic for 60 min at ex: 485 nm, em: 538 nm. Blank wells containing no enzyme were included on each plate.
The intensity of fluorescence was regressed against time in order to derive velocities of reaction in all 384 wells. These velocities were used for calculating percent control using an uninhibited control containing 1% DMSO as 100% and blank control performed in the absence of enzyme as 0%. IC50 values were calculated by fitting percent control vs. test compound concentration using Assay Explorer.

In series [2] the test system is production of Abeta1-x peptides in H4 neuroglioma cell line stably expressing human APP. Put plainly: H4-APPwt Cell-Based Assay (Assay 2), Abeta1-x production. The note with it: H4 neuroglioma cells expressing human APP, Abeta1-x; read-out: H4-APPwt cell IC50 nM (assay 2). How it is done:
H4-APPwt Cell-Based Assay (Assay 2)
Cellular potency of the compounds of the invention was assessed in an assay monitoring production of Abeta1-x peptides in the H4 neuroglioma cell line (ATCC, Cat. #HTB-148) stably expressing human APP, using an immunoassay such as AlphaLISA (PerkinElmer, Cat.# AL288). Tested compounds were dissolved in DMSO and pre-diluted in the culture medium (DMEM containing 10% FBS and 1% penicillin/streptomycin) to achieve twice the final concentration of the compounds in the assay. Equal volumes of the 2× solutions of the tested compounds and cell suspension were added to a 96-well culture plate, so that each well contained ˜10,000 cells in a final volume of 200 μl. Final concentration of DMSO in the assay was 0.2%. The plates were incubated for 5 hrs at 37° C., 5% CO2 to allow cells to attach to the bottom of the wells in the presence of the tested compounds. Then the media was removed and replaced with fresh media containing tested compounds at the same final concentration. The plates were incubated for 18 hrs at 37° C., 5% CO2. Concentrations of Ab1-x were determined using AlphaLISA immunoassay (PerkinElmer, Cat.# AL288) following manufacturer's protocol. Concentrations of Abeta1-x in the wells containing either DMSO or 10 μM beta-secretase inhibitor (BACE inhibitor IV, EMD Bioscience, Cat. #565788) were used as uninhibited and background controls, correspondingly, for calculating percent inhibition values for each well with the tested compounds.

For another series, the target named is hERG (Homo sapiens (Human), UniProt Q12809). Put plainly: hERG-Channel Assay (Assay 3), whole-cell patch clamp. In kind it is cell-based. Conditions: human, HEK293 cells stably transfected with hERG, pH 7.4; 10 μM, HEK293 cells transfected with hERG. The text has this: hERG-Channel Assay (Assay 3)
Sequence of hERG (Q12809 whole entry): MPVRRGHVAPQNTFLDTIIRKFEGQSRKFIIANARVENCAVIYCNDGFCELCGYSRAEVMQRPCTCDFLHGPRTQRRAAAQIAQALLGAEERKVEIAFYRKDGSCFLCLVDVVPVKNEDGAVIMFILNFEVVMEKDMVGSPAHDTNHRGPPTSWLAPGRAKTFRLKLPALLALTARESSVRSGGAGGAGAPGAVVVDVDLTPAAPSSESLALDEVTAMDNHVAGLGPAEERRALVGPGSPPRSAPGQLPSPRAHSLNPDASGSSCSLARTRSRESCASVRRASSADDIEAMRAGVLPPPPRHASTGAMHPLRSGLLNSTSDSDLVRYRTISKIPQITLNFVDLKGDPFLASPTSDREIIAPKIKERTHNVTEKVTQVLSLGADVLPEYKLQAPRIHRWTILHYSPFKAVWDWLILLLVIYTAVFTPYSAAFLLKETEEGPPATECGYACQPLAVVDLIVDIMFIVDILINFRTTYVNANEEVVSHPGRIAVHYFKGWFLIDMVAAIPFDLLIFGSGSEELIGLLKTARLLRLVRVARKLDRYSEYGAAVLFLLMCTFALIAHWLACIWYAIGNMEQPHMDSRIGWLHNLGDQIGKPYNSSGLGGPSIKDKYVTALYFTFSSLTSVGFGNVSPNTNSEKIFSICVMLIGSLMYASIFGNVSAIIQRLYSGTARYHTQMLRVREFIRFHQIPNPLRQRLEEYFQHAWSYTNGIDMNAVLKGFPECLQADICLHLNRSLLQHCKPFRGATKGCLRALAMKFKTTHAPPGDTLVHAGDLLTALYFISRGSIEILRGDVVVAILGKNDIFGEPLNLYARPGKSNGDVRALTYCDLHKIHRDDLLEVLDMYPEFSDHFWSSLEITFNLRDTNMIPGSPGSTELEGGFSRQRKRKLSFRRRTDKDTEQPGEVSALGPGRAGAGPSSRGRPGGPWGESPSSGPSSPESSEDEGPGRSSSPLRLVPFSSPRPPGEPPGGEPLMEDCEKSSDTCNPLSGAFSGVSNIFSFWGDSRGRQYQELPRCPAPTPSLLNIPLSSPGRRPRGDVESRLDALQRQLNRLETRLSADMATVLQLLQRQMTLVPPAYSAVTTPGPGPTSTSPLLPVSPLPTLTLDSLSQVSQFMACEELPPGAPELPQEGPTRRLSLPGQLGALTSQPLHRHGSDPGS
HEK (human embryonic kidney) 293 cells were stably transfected with hERG cDNA.
Cells were superfused with a bath solution containing (mM): NaCl (137), KCl (4.0), MgCl2 (1.0), CaCl2 (1.8), Glucose (10), HEPES (10), pH 7.4 with NaOH. Patch pipettes were made from borosilicate glass tubing using a horizontal puller and filled with pipette solution containing (mM): K-aspartate (130), MgCl2 (5.0), EGTA (5.0), K2ATP (4.0), HEPES (10.0), pH 7.2 with KOH. Resistance of the microelectrodes was in the range between 2 and 5 MΩ.
Membrane currents were recorded using an EPC-10 patch clamp amplifier and PatchMaster software. hERG-mediated membrane currents were recorded at 35° C., using the whole-cell configuration of the patch-clamp technique. Transfected HEK293 cells were clamped at a holding potential of −60 mV and hERG-mediated inactivating tail currents were elicited using a pulse pattern with fixed amplitudes (activation/inactivation: 40 mV for 2000 ms; recovery: −120 mV for 2 ms; ramp to 40 mV in 2 ms; inactivating tail current: 40 mV for 50 ms) repeated at 15 s intervals. During each inter-pulse interval 4 pulses scaled down by a factor of 0.2 were recorded for a P/n leak subtraction procedure. Rs compensation was employed up to a level that safely allowed recording devoid of ringing.
The different concentrations of the test compound were applied sequentially on each of the different cells investigated. A steady state level of baseline current was measured for at least 6 sweeps prior to the application of the first test compound concentration.
The test compound was dissolved in DMSO to yield a master stock solution which was diluted further in DMSO to stock solutions needed for the lower concentrations. Final dilutions in extracellular buffer were prepared freshly from these stocks by a 1:1000 dilution step each before starting the experiments.
Peak current amplitudes were measured 3 ms after the ramp to +40 mV. For baseline and each concentration the peak currents of the three last sweeps before application of the next concentration were averaged. Residual currents (I/I0) were calculated for each cell as the fraction of actual average peak current and average baseline peak current. Results are presented as percent (%) inhibition (1−I/I0)*100% at 10 μM.
(In general: hERG is a cardiac potassium channel; its block is linked to QT prolongation.)

The structures appear in SMILES notation.

Sequence of truncated human beta-secretase, BACE1 (amino acids 1-454) (P56817 22-454): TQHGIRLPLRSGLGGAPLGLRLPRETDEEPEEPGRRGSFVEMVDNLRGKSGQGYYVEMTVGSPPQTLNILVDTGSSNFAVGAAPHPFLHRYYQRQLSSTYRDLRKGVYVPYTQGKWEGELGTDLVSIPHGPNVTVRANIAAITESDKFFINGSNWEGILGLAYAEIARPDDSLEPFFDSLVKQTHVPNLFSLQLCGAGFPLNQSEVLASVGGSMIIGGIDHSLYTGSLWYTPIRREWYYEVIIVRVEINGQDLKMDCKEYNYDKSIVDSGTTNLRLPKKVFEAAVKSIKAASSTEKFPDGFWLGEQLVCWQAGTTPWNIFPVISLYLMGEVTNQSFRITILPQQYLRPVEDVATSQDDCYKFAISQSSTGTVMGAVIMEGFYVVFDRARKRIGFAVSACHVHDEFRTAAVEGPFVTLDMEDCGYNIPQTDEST

Take `CO[C@H]1[C@H](C)C[C@@]2(Cc3ccc(C#N)cc3[C@]23N=C(N)N(C[C@@H]2CCO2)C3=O)C[C@@H]1C` (stereo in doubt) [Example 18]: the values for the IC50 in series [1] and in series [2] were 9 nM and 1.02 nM, respectively. In addition, the inhibition at 10 µM on hERG came out at 17%.

On to `CC[C@@H]1C[C@]2(CC[C@H]1OC)Cc1ccc(C#N)cc1[C@]21N=C(N)N(CC2CCOCC2)C1=O` [Example 2], for which the concentration for half-maximal inhibition (IC50) in series [1] was found to be 8 nM; in series [2], 0.29 nM. At 10 µM the inhibition against hERG was 22%.

For the molecule `CC[C@@H]1C[C@]2(CC[C@H]1OC)Cc1ccc(C#N)cc1[C@]21N=C(N)N(CC2(F)CCOCC2)C1=O` [Example 4], the IC50 in series [1] was determined as 5 nM; in series [2] it was 0.28 nM. This molecule displayed an inhibition at 10 µM against hERG of 0%.

Regarding `CO[C@H]1CC[C@@]2(Cc3ccc(C#N)cc3[C@]23N=C(N)N(CC2(C)COC2)C3=O)C[C@@H]1C` [Example 8], the IC50 was 5 nM in series [1] and 0.49 nM in series [2]. Also, 10 µM produced 16% inhibition against hERG.

In the case of `CO[C@H]1CC[C@@]2(Cc3ccc(C#N)cc3[C@]23N=C(N)N(Cc2ccncn2)C3=O)C[C@@H]1C` [Example 9], the IC50 in series [1] is 9 nM; in series [2], 1.9 nM. Moreover, the inhibition at 10 µM against hERG amounted to 16%.

On to `CO[C@H]1[C@H](C)C[C@@]2(Cc3ccc(C#N)cc3[C@]23N=C(N)N(C2COC2)C3=O)C[C@@H]1C` [Example 12], for which the IC50 was 3 nM in series [1] and 1.1 nM in series [2]. Besides, the inhibition at 10 µM against hERG is 11%.

Take `CO[C@H]1[C@H](C)C[C@@]2(Cc3ccc(C#N)cc3[C@]23N=C(N)N(CC2COC2)C3=O)C[C@@H]1C` [Example 13]: the concentration for half-maximal inhibition (IC50) in series [1] stood at 9 nM; in series [2] it was 0.92 nM. At hERG, this molecule came in with an inhibition at 10 µM of 18%.

On to `CO[C@H]1[C@H](C)C[C@@]2(Cc3ccc(C#N)cc3[C@]23N=C(N)N(C[C@H]2CCCO2)C3=O)C[C@@H]1C` [Example 14], for which the IC50 was 5 nM in series [1] and 0.12 nM in series [2]. At hERG, this molecule registered an inhibition at 10 µM of 20%.

With `CO[C@H]1[C@H](C)C[C@@]2(Cc3ccc(C#N)cc3[C@]23N=C(N)N(C[C@@H]2CCCO2)C3=O)C[C@@H]1C` [Example 15], the 50% inhibitory concentration (IC50) in series [1] worked out at 11 nM; in series [2], 0.11 nM. The molecule further returned an inhibition at 10 µM against hERG of 11%.

For the molecule `CO[C@H]1[C@H](C)C[C@@]2(Cc3ccc(C#N)cc3[C@]23N=C(N)N(CC(C)(C)F)C3=O)C[C@@H]1C` [Example 17], the half-inhibitory concentration (IC50) in series [1] is 14 nM; in series [2] it was 0.89 nM. Moreover, 10 µM produced 12% inhibition on hERG.

`CO[C@H]1[C@H](C)C[C@@]2(Cc3ccc(C#N)cc3[C@]23N=C(N)N(C[C@@H]2COCCO2)C3=O)C[C@@H]1C` [Example 21]: the IC50 is 5 nM in series [1] and 0.48 nM in series [2]. Besides, the inhibition at 10 µM against hERG is 24%.

`CO[C@H]1[C@H](C)C[C@@]2(Cc3ccc(C#N)cc3[C@]23N=C(N)N(C[C@H]2COCCO2)C3=O)C[C@@H]1C` [Example 22]: the IC50 came to 8 nM in series [1] and 0.26 nM in series [2]. For the same molecule, at hERG, testing at 10 µM gave an inhibition of 9%.

For the molecule `CO[C@H]1[C@H](C)C[C@@]2(Cc3ccc(C#N)cc3[C@]23N=C(N)N(CC2(F)CCOCC2)C3=O)C[C@@H]1C` [Example 23], the 50% inhibitory concentration (IC50) in series [1] is 12 nM; in series [2] it was 0.18 nM. On hERG, this molecule returned an inhibition at 10 µM of 16%.

Consider `CC[C@@H]1C[C@@]2(Cc3ccc(C#N)cc3[C@]23N=C(N)N(CC(C)(C)F)C3=O)C[C@H](C)[C@H]1OC` [Example 26], for which the results for the IC50 in series [1] and in series [2] were 9 nM and 0.2 nM, respectively. The inhibition at 10 µM on hERG was found to be 8%.

Usually IC50 stands for the concentration that gives 50% inhibition. The term inhibition denotes the change of the read-out against control, counted positive when it falls.
